{
  "source": "patent US11000033B2",
  "about": "“Ketone or oxime compound, and herbicide” (NISSAN CHEMICAL CORPORATION, priority 2014, dated 2021)",
  "type_in_all_cases": "in vivo",
  "key": {"[1]": {"tested_on": "Echinochloa oryzacola Vasing.", "experiment": "Test Example 2: herbicidal activity, application during weed generation in submerged conditions (symbol A)", "settings": "Table 23; application herbicide amount 320 g/ha; grade 0-5 by criteria of Test Example 1", "procedure,_shortened": "(§1)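 Treatment timing was the one- to two-leaf stage, with diluted emulsifiable compound dropped onto the paddy water (depth 4 cm) over alluvial soil. All three species grew from a mixed sowing in a 25° C. to 30° C. greenhouse. Injury was judged by eye 3 weeks on.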"}, "rapeseed": {"tested_on": "rapeseed", "experiment": "Test Example 5: effect on crop by foliage application, plastic box (symbol g)", "settings": "320 g/ha, 3 weeks after application", "procedure,_shortened": "(§2)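 Plants were raised from seed in a greenhouse (25° C. to 30° C.) after sowing in a plastic box of sterilized diluvial soil.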"}, "Apera spica-venti [2]": {"tested_on": "Apera spica-venti", "experiment": "Test Example 5: herbicidal effect by foliage application, plastic box (symbol L)", "settings": "320 g/ha, 3 weeks after application", "procedure,_shortened": "(§3)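 Herbicide, formulated as an emulsion and diluted in water, is sprayed onto the aerial parts of 14-day seedlings. These were grown at 25° C. to 30° C. in sterilized diluvial soil; effects are graded after 3 weeks.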"}, "Avena fatua": {"tested_on": "Avena fatua", "experiment": "Test Example 4: herbicidal effect by soil treatment (symbol I)", "settings": "application herbicide amount 320 g/ha", "procedure,_shortened": "(§4)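 Seeds were sown in sterilized diluvial soil, covered with about 1.5 cm of soil, and the soil surface was sprayed with a water-diluted emulsion of the compound at a predetermined rate. Plants grew in a greenhouse at 25° C. to 30° C.; effects were scored visually 3 weeks after application.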"}, "Alopecurus myosuroides [3]": {"tested_on": "Alopecurus myosuroides", "experiment": "Test Example 5: herbicidal effect by foliage application, plastic box (symbol J)", "settings": "320 g/ha, 3 weeks after application", "procedure,_shortened": "as §3"}, "Cyperus difformis": {"tested_on": "Cyperus difformis", "experiment": "Test Example 3: herbicidal effect by foliage application, Wagner pot (symbol E)", "settings": "application herbicide amount 320 g/ha, Table 24", "procedure,_shortened": "(§5)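 The compound, formulated as an emulsion and diluted with water to a predetermined rate, is applied uniformly to leaves of two-week-old seedlings growing in submerged alluvial soil at 25–30 °C. Rice is included. Each plant is assessed 3 weeks later using defined criteria.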"}, "[4]": {"tested_on": "Echinochloa crus-galli var. crus-galli", "experiment": "Test Example 3: herbicidal effect by foliage application, Wagner pot (symbol H)", "settings": "application herbicide amount 320 g/ha, Table 24", "procedure,_shortened": "as §5"}, "Veronica persica": {"tested_on": "Veronica persica", "experiment": "Test Example 4: herbicidal effect by soil treatment (symbol R)", "settings": "application herbicide amount 320 g/ha", "procedure,_shortened": "as §4"}, "Setaria viridis": {"tested_on": "Setaria viridis", "experiment": "Test Example 4: herbicidal effect by soil treatment (symbol G)", "settings": "application herbicide amount 320 g/ha", "procedure,_shortened": "as §4"}, "Chenopodium album": {"tested_on": "Chenopodium album", "experiment": "Test Example 4: herbicidal effect by soil treatment (symbol O)", "settings": "application herbicide amount 320 g/ha", "procedure,_shortened": "as §4"}, "Alopecurus myosuroides [5]": {"tested_on": "Alopecurus myosuroides", "experiment": "Test Example 4: herbicidal effect by soil treatment (symbol J)", "settings": "application herbicide amount 320 g/ha", "procedure,_shortened": "as §4"}, "Abutilon theophrasti": {"tested_on": "Abutilon theophrasti", "experiment": "Test Example 4: herbicidal effect by soil treatment (symbol M)", "settings": "application herbicide amount 320 g/ha", "procedure,_shortened": "as §4"}, "corn": {"tested_on": "corn", "experiment": "Test Example 5: effect on crop by foliage application, plastic box (symbol c)", "settings": "320 g/ha, 3 weeks after application", "procedure,_shortened": "as §2"}, "Apera spica-venti [6]": {"tested_on": "Apera spica-venti", "experiment": "Test Example 4: herbicidal effect by soil treatment (symbol L)", "settings": "application herbicide amount 320 g/ha", "procedure,_shortened": "as §4"}, "Scirpus juncoides [7]": {"tested_on": "Scirpus juncoides", "experiment": "Test Example 2: herbicidal activity, application during weed generation in submerged conditions (symbol B)", "settings": "Table 23; application herbicide amount 320 g/ha; grade 0-5 by criteria of Test Example 1", "procedure,_shortened": "as §1"}, "Scirpus juncoides [8]": {"tested_on": "Scirpus juncoides", "experiment": "Test Example 1: herbicidal activity, application before weed generation in submerged conditions (symbol B)", "settings": "application herbicide amount 320 g/ha", "procedure,_shortened": "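Mixed weed seeds sown in alluvial soil under 4 cm of water, with rice seedlings at the 2.5-leaf stage added. Same-day treatment: emulsion diluted to a set herbicide amount onto the water. Three weeks at 25–30 °C, then graded on a six-step scale.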"}},
  "data": [
    {"compound": "CON=C(C)CC1(C)CC(O)=C(c2c(C)cc(C)cc2C)C1=O", "note": "(mixture of isomers) [11-002]", "values": [
      {"measurement": "Herbicidal effect grade, A: Echinochloa oryzacola Vasing.", "setting": "[1]", "value": "2 (Herbicidal ratio of 20% or higher and lower than 40%)"},
      {"measurement": "g: rapeseed, effect on crop grade", "setting": "rapeseed", "value": "4 (Herbicidal ratio of 70% or higher and lower than 90%)"},
      {"measurement": "L: Apera spica-venti, herbicidal effect grade", "setting": "Apera spica-venti [2]", "value": "5 (Herbicidal ratio of 90% or more (almost completely withered))"},
      {"measurement": "Herbicidal effect grade, I: Avena fatua", "setting": "Avena fatua", "value": "3 (Herbicidal ratio of 40% or higher and lower than 70%)"},
      {"measurement": "J: Alopecurus myosuroides, herbicidal effect grade", "setting": "Alopecurus myosuroides [3]", "value": "5 (Herbicidal ratio of 90% or more (almost completely withered))"},
      {"measurement": "E herbicidal effect grade", "setting": "Cyperus difformis", "value": "4 (Herbicidal ratio of 70% or higher and lower than 90%)"},
      {"measurement": "H (Echinochloa crus-galli var. crus-galli) herbicidal effect grade", "setting": "[4]", "value": "5 (Herbicidal ratio of 90% or more (almost completely withered))"},
      {"measurement": "Herbicidal effect grade, R: Veronica persica", "setting": "Veronica persica", "value": "0 (Herbicidal ratio of 5% or lower (almost no effect))"},
      {"measurement": "Herbicidal effect grade, G: Setaria viridis", "setting": "Setaria viridis", "value": "1 (Herbicidal ratio of 5% or higher and lower than 20%)"},
      {"measurement": "Herbicidal effect grade, O: Chenopodium album", "setting": "Chenopodium album", "value": "0 (Herbicidal ratio of 5% or lower (almost no effect))"},
      {"measurement": "Herbicidal effect grade, J: Alopecurus myosuroides", "setting": "Alopecurus myosuroides [5]", "value": "3 (Herbicidal ratio of 40% or higher and lower than 70%)"},
      {"measurement": "Herbicidal effect grade, M: Abutilon theophrasti", "setting": "Abutilon theophrasti", "value": "0 (Herbicidal ratio of 5% or lower (almost no effect))"},
      {"measurement": "c: corn, effect on crop grade", "setting": "corn", "value": "2 (Herbicidal ratio of 20% or higher and lower than 40%)"},
      {"measurement": "Herbicidal effect grade, L: Apera spica-venti", "setting": "Apera spica-venti [6]", "value": "4 (Herbicidal ratio of 70% or higher and lower than 90%)"},
      {"measurement": "Herbicidal effect grade, B: Scirpus juncoides", "setting": "Scirpus juncoides [7]", "value": "0 (Herbicidal ratio of 5% or lower (almost no effect))"},
      {"measurement": "B (Scirpus juncoides) herbicidal effect grade", "setting": "Scirpus juncoides [8]", "value": "0 (Herbicidal ratio of 5% or lower (almost no effect))"}
    ]},
    {"compound": "Cc1cc(Br)cc(C)c1C1=C(O)CC(CC(=O)C(C)C)C1=O", "note": "(racemic) [10-003]", "values": [
      {"measurement": "Herbicidal effect grade, A: Echinochloa oryzacola Vasing.", "setting": "[1]", "value": "3 (Herbicidal ratio of 40% or higher and lower than 70%)"},
      {"measurement": "g: rapeseed, effect on crop grade", "setting": "rapeseed", "value": "0 (Herbicidal ratio of 5% or lower (almost no effect))"},
      {"measurement": "L: Apera spica-venti, herbicidal effect grade", "setting": "Apera spica-venti [2]", "value": "3 (Herbicidal ratio of 40% or higher and lower than 70%)"},
      {"measurement": "Herbicidal effect grade, I: Avena fatua", "setting": "Avena fatua", "value": "0 (Herbicidal ratio of 5% or lower (almost no effect))"},
      {"measurement": "J: Alopecurus myosuroides, herbicidal effect grade", "setting": "Alopecurus myosuroides [3]", "value": "3 (Herbicidal ratio of 40% or higher and lower than 70%)"},
      {"measurement": "E herbicidal effect grade", "setting": "Cyperus difformis", "value": "0 (Herbicidal ratio of 5% or lower (almost no effect))"},
      {"measurement": "H (Echinochloa crus-galli var. crus-galli) herbicidal effect grade", "setting": "[4]", "value": "5 (Herbicidal ratio of 90% or more (almost completely withered))"},
      {"measurement": "Herbicidal effect grade, R: Veronica persica", "setting": "Veronica persica", "value": "0 (Herbicidal ratio of 5% or lower (almost no effect))"},
      {"measurement": "Herbicidal effect grade, G: Setaria viridis", "setting": "Setaria viridis", "value": "4 (Herbicidal ratio of 70% or higher and lower than 90%)"},
      {"measurement": "Herbicidal effect grade, O: Chenopodium album", "setting": "Chenopodium album", "value": "0 (Herbicidal ratio of 5% or lower (almost no effect))"},
      {"measurement": "Herbicidal effect grade, J: Alopecurus myosuroides", "setting": "Alopecurus myosuroides [5]", "value": "3 (Herbicidal ratio of 40% or higher and lower than 70%)"},
      {"measurement": "Herbicidal effect grade, M: Abutilon theophrasti", "setting": "Abutilon theophrasti", "value": "0 (Herbicidal ratio of 5% or lower (almost no effect))"},
      {"measurement": "c: corn, effect on crop grade", "setting": "corn", "value": "2 (Herbicidal ratio of 20% or higher and lower than 40%)"},
      {"measurement": "Herbicidal effect grade, L: Apera spica-venti", "setting": "Apera spica-venti [6]", "value": "3 (Herbicidal ratio of 40% or higher and lower than 70%)"},
      {"measurement": "Herbicidal effect grade, B: Scirpus juncoides", "setting": "Scirpus juncoides [7]", "value": "0 (Herbicidal ratio of 5% or lower (almost no effect))"},
      {"measurement": "B (Scirpus juncoides) herbicidal effect grade", "setting": "Scirpus juncoides [8]", "value": "0 (Herbicidal ratio of 5% or lower (almost no effect))"}
    ]}
  ]
}
